One assay has as its system TDP-43 aggregation. Briefly: TDP-43 aggregation assay in SY5Y TDP-43WT cells (high content imaging). In kind it is cell-based. The following applies: Homo sapiens, tetracycline induction 24 hrs, 1 hour compound pre-treatment, sodium arsenite 23 hrs, 8-point dose curve, percentage of cells with TDP-43 aggregates, read-out: IC50, Inhibition of TDP-43 Aggregation. A digest of the protocol: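 Tetracycline-inducible eGFP-tagged wild-type human TDP-43 in SH-SY5Y cells, induced 24 h ([…]), compound pre-treated 1 h, then sodium arsenite […] for 23 h. Fixed cells imaged; percentage of DAPI-counted cells with aggregates gives IC50 from 8-point curves.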

The test system of a further assay is tau stress granules. In words: SY5Y-tT1 tau arsenite assay (tau stress granules per cell). Format: cell-based. The following applies: SY5Y-tT1 cells, 2 hours compound, 90 minutes arsenite, 50% reduction of granules per cell, read-out: IC50, Inhibitor Activity of Tau Stress Granules. Here is the method: Example 91: In Vitro Efficacy Assay of Exemplary Compounds—SY5Y-tT1 Tau Arsenite/Thapsigargin Assay
• Before harvesting cells—checked to see if cells are ~80% confluency in their flask • 1. Aspirated growth media from flask. • 2. Added 4 mL of (0.25%) trypsin-EDTA (REF: 25200-056) • 3. Placed in 37° C. incubator for 5 minutes. • 4. Removed from incubator and added 11 mL growth media, washing any remaining cells adhered to the bottom of the flask. • 5. Transferred cell containing media to a 50 mL conical tube and spun for 5 minutes at 800 rpm. • 6. Aspirated supernatant and added 5 mL of growth media to cell pellet, triturating to make a homogenous cell solution. • 7. After counting cells, followed one of these plating paradigms: • (A) If treating with arsenite, plated cells at […] with tetracycline solution (5 mg/mL) added to cell solution at 1:5000 • (B) If treating with thapsigargin, plated cells at 4,000 cells/well with tetracycline solution (5 mg/mL) added to cell solution at 1:5000 • 8. Incubated at 37° C. for 48 hours.
• Solubilized all compounds to 10 mM prior to making dilution plates • 1. To a 96-well U-bottom plate (Falcon Non-Tissue Culture Treated Plates REF: 351177) added 120 μL growth media to all 96 wells, with an additional 58.2 μL to row A. • 2. Added 1.8 μL of 10 mM compound stock to wells A1-11, adding 1.8 μL of 10 mM PERKi stock (Selleck Chemistry GSK2606414 Cat No. S7307) as the control. • 3. Serially diluted 60 μL from row A down through each row, finishing with 180 μL total volume in row H. • 4. Transferred 12.5 μL of each dilution plate well to the correlating wells in cell plate, being careful not to touch cells adhered to bottom of the plate. • 5. Incubated for 2 hours.
• 1. Added 720 μL of 0.05 M sodium arsenite solution (CAS #: 7784-46-5) to 10 mL of growth media for a final concentration of […] arsenite solution, mix well. • 2. Added 12.5 μL of arsenite solution to all wells of compounds treated plate intended for arsenite treatment. • 3. Incubated at 37° C. for 90 minutes.
• Before beginning this part of the protocol: • Made 1×PBS by diluting 10× stock (10×, Phosphate buffered saline, Fisher #BP399— • 4) in sterile deionized water. • Diluted paraformaldehyde (16% Paraformaldehyde solution, Electron Microscopy Sciences #15710-S) to 4% in 1×PBS. • Diluted Hoechst stain (Life Technologies #H3570) 1:10,000 in 1×PBS (1 μL Hoechst per 10 mL 1×PBS). • Both solutions were protected from light. • 1) After compound treatment, aspirated media from cell plates and gently added in 50 μL of 4% paraformaldehyde for 10 min protected from light at room temperature. • 2) Aspirated paraformaldehyde solution and gently added 50 μL of 1:10,000 Hoechst solution to each well and incubated for 10 min protected from light at room temperature. • 3) Aspirated Hoechst solution and gently added 100 μL 1×PBS. Cover the plate with aluminum film (VWR #60941-126). • 4) Stored at 4° C. or used immediately for imaging on ThermoFisher CX7 imager.
Exemplary compounds of the disclosed herein were evaluated for efficacy for inhibitor activity of tau stress granules in the arsenite assay and quantified as drug concentration providing a 50% reduction (IC50) of granules per cell is shown in Table 4.
In Table 4 below, A indicates an IC50 (μM)<0.5 μM, B indicates an IC50 (μM) 0.5 μM to <1 μM, C indicates an IC50 (μM) 1 μM to <2 μM, and D indicates an IC50 (μM) 2 μM to <6 μM.

As to `Cc1cc(-c2ccc3c(c2)CCNC3)sc1C(=O)N1CC[C@H](N)C1` [Compound 199, (S)-(3-aminopyrrolidin-1-yl)(3-methyl-5-(1,2,3,4-tetrahydroisoquinolin-6-yl)thiophen-2-yl)methanone], the half-inhibitory concentration (IC50) – broadly, the concentration at which inhibition is half-maximal – in the assay with TDP-43 aggregation is < 500 nM; in the assay with tau stress granules, 2000 to 6000 nM.

Consider `Cc1cc(-c2ccc(C3CCN(C4CCCC4)CC3)cc2)sc1C(=O)N1CC[C@H](N)C1` [Compound 180, (S)-(3-aminopyrrolidin-1-yl)(5-(4-(1-cyclopentylpiperidin-4-yl)phenyl)-3-methylthiophen-2-yl)methanone], for which the IC50 in the assay with TDP-43 aggregation and in the assay with tau stress granules was < 500 nM throughout.

For `COCCN1CCC(c2ccc(-c3cc(C)c(C(=O)N4CC[C@H](N)C4)s3)cc2)CC1` [Compound 142, (S)-(3-aminopyrrolidin-1-yl)(5-(4-(1-(2-methoxyethyl)piperidin-4-yl)phenyl)-3-methylthiophen-2-yl)methanone], the IC50 in the assay with TDP-43 aggregation is < 500 nM; with tau stress granules it was 500 to 1000 nM.

For the compound `Cc1cc(-c2ccc(C3CCN(C4CCC4)CC3)cc2)sc1C(=O)N1CC[C@H](N)C1` [Compound 181, (S)-(3-aminopyrrolidin-1-yl)(5-(4-(1-cyclobutylpiperidin-4-yl)phenyl)-3-methylthiophen-2-yl)methanone], the results for the concentration for half-maximal inhibition (IC50) in the assay with TDP-43 aggregation and in the assay on tau stress granules were < 500 nM and 500 to 1000 nM, respectively.

In the case of `CCN1CCC(c2ccc(-c3cc(C)c(C(=O)N4CC[C@H](N)C4)s3)cc2)CC1` [Compound 176, (S)-(3-aminopyrrolidin-1-yl)(5-(4-(1-ethylpiperidin-4-yl)phenyl)-3-methylthiophen-2-yl)methanone], the 50% inhibitory concentration (IC50) was < 500 nM with TDP-43 aggregation and 500 to 1000 nM with tau stress granules.

For the compound `Cc1cc(-c2ccc(C3CCN(C4CCCCC4)CC3)cc2)sc1C(=O)N1CC[C@H](N)C1` [Compound 179, (S)-(3-aminopyrrolidin-1-yl)(5-(4-(1-cyclohexylpiperidin-4-yl)phenyl)-3-methylthiophen-2-yl)methanone], the IC50 in the assay on TDP-43 aggregation is < 500 nM; in the assay on tau stress granules, 500 to 1000 nM.

Take `Cc1cc(-c2ccc(C3CCN(C4CCS(=O)(=O)CC4)CC3)cc2)sc1C(=O)N1CC[C@H](N)C1` [Compound 156, (S)-(3-aminopyrrolidin-1-yl)(5-(4-(1-(1,1-dioxidotetrahydro-2H-thiopyran-4-yl)piperidin-4-yl)phenyl)-3-methylthiophen-2-yl)methanone]: the IC50 in the assay on TDP-43 aggregation and in the assay on tau stress granules was < 500 nM in each case.

Consider `Cc1cc(-c2ccc(C(C)N(C)C)cc2)sc1C(=O)N1CC[C@H](N)C1` (stereo partly drawn) [Compound 200, ((S)-3-aminopyrrolidin-1-yl)(5-(4-(1-(dimethylamino)ethyl)phenyl)-3-methylthiophen-2-yl)methanone], for which the values for the concentration for half-maximal inhibition (IC50) with TDP-43 aggregation and in the assay with tau stress granules were < 500 nM and 2000 to 6000 nM, respectively.

As for `CCN1CCN(c2ccc(-c3cc(C)c(C(=O)N4CC[C@H](N)C4)s3)cc2)CC1` [Compound 155, (S)-(3-aminopyrrolidin-1-yl)(5-(4-(4-ethylpiperazin-1-yl)phenyl)-3-methylthiophen-2-yl)methanone], the results for the IC50 with TDP-43 aggregation and in the assay on tau stress granules were < 500 nM and 500 to 1000 nM, respectively.

With `Cc1cc(-c2ccc(C3CCN(C)CC3)c(F)c2)sc1C(=O)N1CC[C@H](N)C1` [Compound 136, (S)-(3-aminopyrrolidin-1-yl)(5-(3-fluoro-4-(1-methylpiperidin-4-yl)phenyl)-3-methylthiophen-2-yl)methanone], the IC50 in the assay with TDP-43 aggregation and in the assay on tau stress granules was < 500 nM throughout.

Take `Cc1cc(-c2ccc(CN(C)C)cc2)sc1C(=O)N1CC[C@H](N)C1` [Compound 217, (S)-(3-aminopyrrolidin-1-yl)(5-(4-((dimethylamino)methyl)phenyl)-3-methylthiophen-2-yl)methanone]: in the assay on tau stress granules, the 50% inhibitory concentration (IC50) lay in the range of 1000 to 2000 nM.

Consider `Cc1cc(-c2ccc(C3CCN(C4CCOCC4)CC3)cc2)sc1C(=O)N1CC[C@H](N)C1` [Compound 178, (S)-(3-aminopyrrolidin-1-yl)(3-methyl-5-(4-(1-(tetrahydro-2H-pyran-4-yl)piperidin-4-yl)phenyl)thiophen-2-yl)methanone], for which the half-inhibitory concentration (IC50) in the assay on TDP-43 aggregation and with tau stress granules was < 500 nM throughout.

Consider `Cc1cc(-c2ccc(N3CCN(C(C)C)CC3)cc2)sc1C(=O)N1CC[C@H](N)C1` [Compound 159, (S)-(3-aminopyrrolidin-1-yl)(5-(4-(4-isopropylpiperazin-1-yl)phenyl)-3-methylthiophen-2-yl)methanone], for which the IC50 in the assay on tau stress granules was in the range of 500 to 1000 nM.

For `COCCCN1CCC(c2ccc(-c3cc(C)c(C(=O)N4CC[C@H](N)C4)s3)cc2)CC1` [Compound 141, (S)-(3-aminopyrrolidin-1-yl)(5-(4-(1-(3-methoxypropyl)piperidin-4-yl)phenyl)-3-methylthiophen-2-yl)methanone], the IC50 in the assay on TDP-43 aggregation is < 500 nM; in the assay on tau stress granules, 500 to 1000 nM.

Regarding `Cc1cc(-c2ccc(C3CCN(C4CCSCC4)CC3)cc2)sc1C(=O)N1CC[C@H](N)C1` [Compound 167, (S)-(3-aminopyrrolidin-1-yl)(3-methyl-5-(4-(1-(tetrahydro-2H-thiopyran-4-yl)piperidin-4-yl)phenyl)thiophen-2-yl)methanone], in the assay on tau stress granules, the IC50 is 1000 to 2000 nM.

Consider `Cc1cc(-c2cc(C)c(C(=O)N3CC[C@H](N)C3)s2)ccc1C1CCN(C)CC1` [Compound 144, (S)-(3-aminopyrrolidin-1-yl)(3-methyl-5-(3-methyl-4-(1-methylpiperidin-4-yl)phenyl)thiophen-2-yl)methanone], for which the 50% inhibitory concentration (IC50) with tau stress granules is 2000 to 6000 nM.

As to `Cc1cc(-c2ccc(N3CCN(C4CCCCC4)CC3)cc2)sc1C(=O)N1CC[C@H](N)C1` [Compound 148, (S)-(3-aminopyrrolidin-1-yl)(5-(4-(4-cyclohexylpiperazin-1-yl)phenyl)-3-methylthiophen-2-yl)methanone], the IC50 in the assay on tau stress granules was in the range of 1000 to 2000 nM.

Regarding `Cc1cc(-c2ccc(C3CCNCC3)cc2F)sc1C(=O)N1CC[C@H](N)C1` [Compound 129, (S)-(3-aminopyrrolidin-1-yl)(5-(2-fluoro-4-(piperidin-4-yl)phenyl)-3-methylthiophen-2-yl)methanone], in the assay on tau stress granules, the IC50 lay within 2000 to 6000 nM.

Take `Cc1cc(-c2ccc(C3CCN(C)CC3)cc2Cl)sc1C(=O)N1CC[C@H](N)C1` [Compound 120, (S)-(3-aminopyrrolidin-1-yl)(5-(2-chloro-4-(1-methylpiperidin-4-yl)phenyl)-3-methylthiophen-2-yl)methanone]: the 50% inhibitory concentration (IC50) in the assay with tau stress granules fell in the range of 1000 to 2000 nM.

For the compound `Cc1cc(C2CCN(C)CC2)ccc1-c1cc(C)c(C(=O)N2CC[C@H](N)C2)s1` [Compound 134, (S)-(3-aminopyrrolidin-1-yl)(3-methyl-5-(2-methyl-4-(1-methylpiperidin-4-yl)phenyl)thiophen-2-yl)methanone], the IC50 in the assay on tau stress granules lay in the range of 2000 to 6000 nM.

For the compound `Cc1cc(-c2ccc(N3CCN(C4CCCC4)CC3)cc2)sc1C(=O)N1CC[C@H](N)C1` [Compound 153, (S)-(3-aminopyrrolidin-1-yl)(5-(4-(4-cyclopentylpiperazin-1-yl)phenyl)-3-methylthiophen-2-yl)methanone], the IC50 in the assay with tau stress granules is 1000 to 2000 nM.

Take `C=CCc1cc(-c2ccc(C3CCN(C(C)C)CC3)cc2)sc1C(=O)N1CC[C@H](N)C1` [Compound 109, (S)-(3-allyl-5-(4-(1-isopropylpiperidin-4-yl)phenyl)thiophen-2-yl)(3-aminopyrrolidin-1-yl)methanone]: the concentration for half-maximal inhibition (IC50) in the assay with tau stress granules was < 500 nM.
